The source of these data is US5441887A, “Rapid degradation of halogenated hydrocarbons by soluble methane monooxygenase” (Regents of the University of Minnesota, priority 1994, dated 1995).

The target in series [1] is T1, soluble methane monooxygenase (reductase, component B, hydroxylase) (Methylosinus trichosporium, UniProt P27353).
T1 construct: The cells were disintegrated by sonication; made in house; host or cells: native protein purified from cell paste of the methane-oxidizing bacterium (no recombinant host given)
T1 sequence (P27353 1-526): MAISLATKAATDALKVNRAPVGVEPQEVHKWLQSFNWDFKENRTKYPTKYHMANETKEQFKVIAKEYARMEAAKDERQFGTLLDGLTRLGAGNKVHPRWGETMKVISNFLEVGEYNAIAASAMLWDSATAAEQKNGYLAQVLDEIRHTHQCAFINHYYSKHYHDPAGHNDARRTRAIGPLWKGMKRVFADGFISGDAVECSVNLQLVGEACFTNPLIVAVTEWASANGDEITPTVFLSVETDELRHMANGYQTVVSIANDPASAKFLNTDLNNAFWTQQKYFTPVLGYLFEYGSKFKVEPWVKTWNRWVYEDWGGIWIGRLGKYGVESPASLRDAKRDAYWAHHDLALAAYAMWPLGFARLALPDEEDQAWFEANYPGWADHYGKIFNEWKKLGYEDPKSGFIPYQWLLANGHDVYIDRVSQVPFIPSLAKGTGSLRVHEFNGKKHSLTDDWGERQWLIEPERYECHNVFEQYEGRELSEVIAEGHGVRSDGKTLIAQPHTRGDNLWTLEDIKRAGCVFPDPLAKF
T1 sequence (P27354 1-394 partner): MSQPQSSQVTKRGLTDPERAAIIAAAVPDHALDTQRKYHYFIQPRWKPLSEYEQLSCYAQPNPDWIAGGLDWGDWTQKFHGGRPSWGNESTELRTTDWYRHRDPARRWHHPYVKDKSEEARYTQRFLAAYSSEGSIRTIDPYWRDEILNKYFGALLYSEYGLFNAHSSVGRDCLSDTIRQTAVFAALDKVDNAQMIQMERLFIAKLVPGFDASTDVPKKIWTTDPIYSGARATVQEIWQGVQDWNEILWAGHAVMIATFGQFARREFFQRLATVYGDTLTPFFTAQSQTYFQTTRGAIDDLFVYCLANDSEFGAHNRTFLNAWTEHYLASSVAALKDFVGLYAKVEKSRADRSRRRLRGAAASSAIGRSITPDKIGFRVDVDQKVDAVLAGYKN
T1 sequence (P27355 1-169 partner): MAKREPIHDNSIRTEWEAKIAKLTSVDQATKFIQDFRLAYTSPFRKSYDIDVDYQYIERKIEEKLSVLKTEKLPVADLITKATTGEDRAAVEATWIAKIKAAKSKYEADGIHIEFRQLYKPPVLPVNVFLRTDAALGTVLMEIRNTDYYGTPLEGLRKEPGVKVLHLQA
In words: Degradation of 14C-TCE by purified methane monooxygenase components with NADH, HPLC analysis. The class given is biochemical, Methylosinus trichosporium OB3b. The protocol:
The three components of methane monooxygenase, reductase, component B, and hydroxylase, were purified by the method of Fox and Lipscomb, supra, the disclosure of which is hereby incorporated by reference. All purification procedures were performed at 4° C. The cell paste (100 g) was suspended in 200 ml of 25 mM MOPS, pH 7.0, containing 200 μ M Fe(NH4 )2 (SO4)2.6H2 O and 2 mM cysteine (Buffer A). The cells were disintegrated by sonication. The sonicated suspension was centrifuged at 48000×g for 60 min. The supernatant was decanted, diluted with an additional 100 ml of buffer A, and adjusted to pH 7.0. The cell free extract was immediately loaded onto a fast flow DEAE Sepharose CL-6B column (40 mm×250 mm) equilibrated with buffer A. The column was then washed with 600 ml of buffer A. All MMO components were completely adsorbed. The MMO components were eluted with a 2000 ml gradient of 0.0 to 0.40M NaCl in buffer A. The hydroxylase eluted at 0.075M NaCl. The two additional fractions required for reconstituted hydroxylase activity, component B and the reductase, eluted at 0.18M NaCl and 0.27M NaCl, respectively.
105 nmol of uniformly labelled ^14 C-TCE was added to each vial by injection through the rubber septum above the reaction mixture until a final TCE concentration of 70 μM was reached. The reaction was allowed to proceed for 2 min at 25° C. and then quenched by the addition of sulfuric acid (Sigma Chemical Company, St. Louis, Miss.) at pH 2.0.
Following centrifugation to remove precipitated protein, the reaction mixtures were analyzed by high pressure liquid chromatography (HPLC).

The test system of series [2] is methane-oxidizing bacteria. The note with it: soil exposed to 0.6% natural gas in air for 3 weeks, TCE average 150 μg/l in influent; cited from earlier work.

Structures are written as SMILES.

`ClC=C(Cl)Cl` [TCE, 1,1,2-trichloroethene]: the “Products of TCE oxidation” value in series [1] (70 μM 14C-TCE, 2 min at 25° C., HPLC) was “formic acid, glyoxylic acid, dichloroacetic acid, and chloral”. Besides, in series [1] (70 μM 14C-TCE, 2 min at 25° C., reductase 110 μg, component B 13 μg, hydroxylase 250 μg, NADH 0.1 mM), the “TCE converted to HPLC-detectable products” value was determined as 53%. Moreover, the “Products of TCE oxidation in control incubations” value in series [1] (each one of the methane monooxygenase components or NADH omitted) is “no products of TCE oxidation were detectable”. In addition, the “Applied TCE passing through the soil” value in series [2] is recorded as “less than 5%”.
